Consider seven compounds from ChEMBL document CHEMBL1122846, “Design and synthesis of new transition-state analogue inhibitors of aspartate transcarbamylase” (J Med Chem, 1985).

One assay is described as follows: Compound is evaluated for inhibition of aspartate transcarbamoylase (ATCase). Also on record: species or system Escherichia coli.
`O=C(O)CC(NS(=O)(=O)CP(=O)(O)O)C(=O)O` (configuration not stated) displayed a Ki of 500 µM.
The same measure, in the same setting: the same measure for `O=C(O)CC(CSCP(=O)(O)O)C(=O)O` (configuration not stated): 430 µM.
Same read-out and setting: for `O=C(O)CC(CS(=O)(=O)CP(=O)(O)O)C(=O)O` (configuration not stated) the value was 650 µM; for `O=C(O)CC(NC(=O)CP(=O)(O)O)C(=O)O` (configuration not stated) [SPARFOSIC ACID], 0.03 µM; for `O=C(O)CC(C[S+]([O-])CP(=O)(O)O)C(=O)O` (configuration not stated), 2300 µM.
Still for that read-out and setting: for `O=C(O)CC(OC(=O)CP(=O)(O)O)C(=O)O` (configuration not stated) the value was 2 µM.

Another assay is described as follows: Compound is evaluated for inhibition of aspartate transcarbamoylase (ATCase). Also on record: species or system Escherichia coli.
The compound `O=C(O)CC(SCP(=O)(O)O)C(=O)O` (configuration not stated) showed a Ki of 1100 µM.

By Ki is commonly meant a measure of affinity in units of concentration, obtained from inhibition or displacement.
